Test results published in patent US12016896B2, “Dipeptidomimetics as inhibitors of human immunoproteasomes” (CORNELL UNIVERSITY, priority 2014, dated 2024).

Tests used:
[1] = target: human constitutive proteasome β5c (Homo sapiens, UniProt P28074); test: IC50 against chymotryptic activity of human constitutive proteasome (Hu c-20S, suc-LLVY-AMC substrate); assay type: biochemical; details: 0.2 nM Hu c-20S, 25 μM suc-LLVY-AMC, 0.02% SDS, pH 7.4, 37° C.
Method: (§1) Measurement of IC50s of Dipeptidomimetics Against Chymotryptic Activities of the Human Constitutive Proteasome and Immunoproteasome
(§2) Assays were conducted on a SpectraMax Gemini plate-reader from Molecular Devices (Sunnyvale, CA). In a black 96-well plate, 100 μL of pre-warmed assay mixture containing 0.4 nM Hu i-20S or 0.2 nM Hu c-20S, 15 μM N-acetyl-Alanine-Asparagine-Tryptophan-7-amino-4-methylcoumarin (Ac-ANW-AMC) (substrate for i-20S) or 25 μM N-succinyl-Leucine-Leucine-Valine-Tyrosine-7-amino-4-methylcoumarin (suc-LLVY-AMC) (substrate for c-20S), 0.02% SDS in buffer (50 mM HEPES, 0.5 mM EDTA, pH 7.4) was added to the wells that contained 1 μL inhibitor at 100× indicated concentrations in DMSO. The reaction progress of each well was recorded by monitoring fluorescence at 460 nm (λex=360 nm) for 120 minutes at 37° C. Velocities were derived from the initial linear range of the curves and the IC50s were obtained by plotting the percentage of inhibitor versus inhibitor concentrations (FIG. 1). […]

[2] = target: human immunoproteasome β5i (Homo sapiens, UniProt P28062); test: IC50 against chymotryptic activity of human immunoproteasome (Hu i-20S, Ac-ANW-AMC substrate); assay type: biochemical; details: 0.4 nM Hu i-20S, 15 μM Ac-ANW-AMC, 0.02% SDS, pH 7.4, 37° C.
Method: as §1, §2

Row | SMILES | IC50 [1] [µM] | IC50 [2] [µM]
1 | C[C@@H](CC(=O)NCc1cccc2ccccc12)NC(=O)[C@H](CC(=O)NC(C)(C)C)NC(=O)OC(C)(C)C [PK52272, tert-butyl ((S)-4-(tert-butylamino)-1-(((S)-4-((naphthalen-1-ylmethyl)amino)-4-oxobutan-2-yl)amino)-1,4-dioxobutan-2-yl)carbamate] | > 100 | 0.152
2 | Cc1ccc(S(=O)(=O)N[C@H](CC(=O)N[C@@H](C)C(=O)NCc2cccc3ccccc23)CC(=O)NC(C)(C)C)cc1 [PK52279, (R)—N^1-(tert-butyl)-3-(4-methylphenylsulfonamido)-N^5—((S)-1-((naphthalen-1-ylmethyl)amino)-1-oxopropan-2-yl)pentanediamide] | 34.7 | 0.0145
3 | Cc1ccc(S(=O)(=O)N[C@@H](CCC(=O)NC(C)(C)C)CC(=O)N[C@@H](C)C(=O)NCc2cccc3ccccc23)cc1 [PK52290, (S)—N^6-(tert-butyl)-3-(4-methylphenylsulfonamido)-N^1—((S)-1-((naphthalen-1-ylmethyl)amino)-1-oxopropan-2-yl)hexanediamide] | 13.9 | 1.6
4 | Cc1ccc(S(=O)(=O)N[C@H](CC(=O)N[C@@H](C)CC(=O)NCc2cccc3ccccc23)CC(=O)NC(C)(C)C)cc1 [PK52291, (R)—N^1-(tert-butyl)-3-(4-methylphenylsulfonamido)-N^5—((S)-4-((naphthalen-1-ylmethyl)amino)-4-oxobutan-2-yl)pentanediamide] | > 100 | 8.68
5 | C[C@@H](CC(=O)NCc1cccc2ccccc12)NC(=O)[C@H](CC(=O)NC(C)(C)C)NS(=O)(=O)C1CC1 [PK52295, (S)—N^4-(tert-butyl)-2-(cyclopropanesulfonamido)-N^1—((S)-4-((naphthalen-1-ylmethyl)amino)-4-oxobutan-2-yl)succinamide] | – | 0.141
6 | Cc1ccc(S(=O)(=O)N[C@@H](CCC(=O)NC(C)(C)C)C(=O)N[C@@H](C)C(=S)NCc2cccc3ccccc23)cc1 [PK53021] | 13.4 | 0.671
7 | Cc1cc(C(=O)N[C@@H](CC(=O)NC(C)(C)C)C(=O)N[C@@H](C)CC(=O)NCc2cccc3ccccc23)no1 [PKS2249, (S)—N^4-(tert-butyl)-2-(5-methylisoxazole-3-carboxamido)-N^1—((S)-4-((naphthalen-1-ylmethyl)amino)-4-oxobutan-2-yl)succinamide] | 16.1 | 0.18
8 | C[C@@H](CC(=O)NCc1cccc2ccccc12)NC(=O)[C@H](CC(=O)NC(C)(C)C)NC(=O)CCc1ccccc1 [PKS2251, (S)—N^4-(tert-butyl)-N^1—((S)-4-((naphthalen-1-ylmethyl)amino)-4-oxobutan-2-yl)-2-(3-phenylpropanamido)succinamide] | 32.2 | 0.045
9 | Cc1ccc(S(=O)(=O)N[C@@H](CC(=O)NC(C)(C)C)C(=O)N[C@@H](C)CC(=O)NCc2cccc3ccccc23)cc1 [PKS2252, (S)—N^4-(tert-butyl)-2-((4-methylphenyl)sulfonamido)-N^1—((S)-4-((naphthalen-1-ylmethyl)amino)-4-oxobutan-2-yl)succinamide] | 8.81 | 0.0064
10 | C[C@@H](CC(=O)NCc1cccc2ccccc12)NC(=O)[C@H](CCC(=O)NC(C)(C)C)NC(=O)CCc1ccccc1 [PKS2253, (S)—N^5-(tert-butyl)-N^1—((S)-4-((naphthalen-1-ylmethyl)amino)-4-oxobutan-2-yl)-2-(3-phenylpropanamido)pentanediamide] | 17.8 | 0.31
11 | C[C@@H](CC(=O)NCc1cccc2ccccc12)NC(=O)[C@H](CC(=O)NC(C)(C)C)NS(=O)(=O)c1ccccc1 [PKS2260, (S)—N^4-(tert-butyl)-N^1—((S)-4-((naphthalen-1-ylmethyl)amino)-4-oxobutan-2-yl)-2-(phenylsulfonamido)succinamide] | 16.6 | 0.0112
12 | C[C@H](NC(=O)C[C@H](CC(=O)NC(C)(C)C)NC(=O)CCc1ccccc1)C(=O)NCc1cccc2ccccc12 [PKS2278, (R)—N^1-(tert-butyl)-N^5—((S)-1-((naphthalen-1-ylmethyl)amino)-1-oxopropan-2-yl)-3-(3-phenylpropanamido)pentanediamide] | > 100 | 2.26
13 | C[C@@H](CC(=O)NCc1cccc2ccccc12)NC(=O)C[C@H](CC(=O)NC(C)(C)C)NC(=O)CCc1ccccc1 [PKS2292, (R)—N^1-(tert-butyl)-N^5—((S)-4-((naphthalen-1-ylmethyl)amino)-4-oxobutan-2-yl)-3-(3-phenylpropanamido)pentanediamide] | > 100 | > 100
14 | C[C@H](NC(=O)[C@H](CCC(=O)NC(C)(C)C)NC(=O)CCc1ccccc1)C(=S)NCc1cccc2ccccc12 [PKS3020] | 7 | 0.799
15 | C[C@@H](CC(=O)NCc1cccc2ccccc12)NC(=O)[C@H](CC(=O)NC(C)(C)C)NC(=O)C(=O)c1c[nH]c2ccccc12 [PKS3054] | 0.234 | 0.0048
16 | C[C@H](NC(=O)C[C@H](CC(=O)NC(C)(C)C)NC(=O)OC(C)(C)C)C(=O)Nc1ccccc1 [PKS3065] | > 100 | > 100
17 | C[C@@H](CC(=O)Nc1cccc2ccccc12)NC(=O)[C@H](CC(=O)NC(C)(C)C)NC(=O)CCc1ccccc1 [PKS3081] | > 100 | 13.7
18 | CC(C)(C)NC(=O)C[C@H](NC(=O)CCc1ccccc1)C(=O)NCCC(=O)NCc1cccc2ccccc12 [PKS21220] | 51.4 | 0.655
